Here are results for 17 compounds from patent publication US9783532B2, “Molecules having certain pesticidal utilities, and intermediates, compositions, and processes related thereto” (Dow AgroSciences LLC, priority 2013, dated 2017).

Type in all cases: in vivo
For series [1], the system named is Green Peach Aphid ("GPA") (Myzus persicae). As to the kind of experiment: Bioassay on green peach aphid (GPA), foliar spray on cabbage seedlings. The settings on record: Myzus persicae, foliar, 72 h; 200 ppm spray on infested cabbage seedlings, three days, Abbott corrected % control; read-out: GPA % Control (or Mortality) rating. The procedure: Certain molecules disclosed in this document were tested against GPA using procedures described in the following example. In the reporting of the results, the “GPA Rating Table” was used (See Table Section).
Cabbage seedlings grown in 3-inch pots, with 2-3 small (3-5 cm) true leaves, were used as test substrate. The seedlings were infested with 20-50 GPA (wingless adult and nymph stages) one day prior to chemical application. Four pots with individual seedlings were used for each treatment. Test compounds (2 mg) were dissolved in 2 mL of acetone/methanol (1:1) solvent, forming stock solutions of 1000 ppm test compound. The stock solutions were diluted 5× with 0.025% Tween 20 in water to obtain the solution at 200 ppm test compound. A hand-held aspirator-type sprayer was used for spraying a solution to both sides of […] leaves until runoff. Reference plants (solvent check) were sprayed with the diluent only containing 20% by volume of acetone/methanol (1:1) solvent. Treated plants were held in a holding room for three days at approximately 25° C. and ambient relative humidity (RH) prior to grading. Evaluation was conducted by counting the number of live aphids per plant under a microscope. Percent Control was measured by using Abbott's correction formula (W. S. Abbott, “A Method of Computing the Effectiveness of an Insecticide” J. Econ. Entomol. 18 (1925), pp. 265-267) as follows. Corrected % Control=100*(X−Y)/X • where • X=No. of live aphids on solvent check plants and • Y=No. of live aphids on treated plants

Series [2] relates to Beet Armyworm (Spodoptera exigua) ("BAW"). Briefly: Bioassay on beet armyworm (BAW), 128-well diet tray assay. The settings on record: 168 h, 50 μg/cm^2 on artificial diet, second instar BAW larvae, 25° C., five to seven days, average of eight wells, read-out: BAW % Control (or Mortality) rating. An outline of the steps: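 Second-instar larvae (one to five per well) were placed on artificial diet surface-treated with 50 μg/cm^2 compound applied in 90:10 acetone-water and dried, eight wells per compound. Held at 25° C., 14:10 light-dark for five to seven days; percent mortality was scored per well and averaged over the eight wells.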

The subject of series [3] is Cabbage Looper (Trichoplusia ni) ("CL"). Briefly: Bioassay on cabbage looper (CL), 128-well diet tray assay. The settings on record: 168 h, 50 μg/cm^2 on artificial diet, second instar CL larvae, 25° C., five to seven days, average of eight wells, read-out: CL % Control (or Mortality) rating. Summed up: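 Second-instar larvae (one to five per well) placed on artificial diet surface-treated with 50 μg/cm^2 compound in 90:10 acetone-water, dried before infestation. Held 25 °C, 14:10 light-dark for five to seven days; percent mortality scored per well and averaged over eight wells.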

Series [4] concerns Yellow Fever Mosquito "YFM" (Aedes aegypti). The settings on record: about 1 day-old larvae, 96-well plate, room temperature, 3 days, mortality. Summed up: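 About 1 day-old Aedes aegypti larvae in liver-powder water added to wells holding compound diluted from 4000 ppm DMSO stock with 90:10 water:acetone, 6 replicate plates. Plates kept covered at room temperature for 3 days. Wells scored for mortality and reported as rating categories.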

A word on the mortality: it is the share of the test organisms that died. On to `CC(C)c1ccccc1N1C(=O)CS/C1=N\C(=O)NCCc1ccc(-c2ncn(-c3ccc(OC(F)(F)F)cc3)n2)cc1` [F1, (Z)-1-(3-(2-isopropylphenyl)-4-oxothiazolidin-2-ylidene)-3-(4-(1-(4-(trifluoromethoxy)phenyl)-1H-1,2,4-triazol-3-yl)phenethyl)urea], for which the mortality at 200 ppm in series [1] stood at 0%. The mortality at 50 µg/cm2 in series [2] and in series [3] was 50 to 100% each time.
With `Cc1ccc(C(C)C)c(NC(=S)NC(=O)NCCc2ccc(-c3ncn(-c4ccc(OC(F)(F)F)cc4)n3)cc2)c1` [F3, N-[5-methyl-2-isopropylphenyl]-N′-[2-(4-{1-[4-(trifluoromethoxy)-phenyl]-1H-1,2,4-triazol-3-yl}phenyl)ethyl]dicarbonimidothioic diamide], the mortality at 200 ppm in series [1] was 0 to 80%. In addition, the mortality at 50 µg/cm2 in series [2] and in series [3] was 50 to 100% throughout.
With `Cc1ccc(C(C)C)c(N2C(=O)CS/C2=N\C(=O)NC(C)Cc2ccc(-c3ncn(-c4ccc(OC(F)(F)F)cc4)n3)cc2)c1` (stereo not drawn) [F8, (Z)-1-(3-(2-isopropropyl-5-methylphenyl)-4-oxothiazolidin-2-ylidene)-3-(1-(4-(1-(4-(trifluoromethoxy)phenyl)-1H-1,2,4-triazol-3-yl)phenyl)propan-2-yl)urea], the mortality at 200 ppm in series [1] worked out at 0%. The mortality at 50 µg/cm2 in series [2] and in series [3] was 50 to 100% in each case.
Take `CC(C)c1ccccc1NC(=S)NC(=O)N/C=C/c1ccc(-c2ncn(-c3ccc(OC(F)(F)F)cc3)n2)cc1` [F11]: the mortality at 200 ppm in series [1] is 0%. In addition, the mortality at 50 µg/cm2 in series [2] and in series [3] was 50 to 100% throughout.
In the case of `CC(C)c1ccccc1N1C(=O)CS/C1=N\C(=O)N/C=C/c1ccc(-c2ncn(-c3ccc(OC(F)(F)F)cc3)n2)cc1` [F12], in series [1], the mortality at 200 ppm is 0%. In addition, the mortality at 50 µg/cm2 in series [2] and in series [3] was 50 to 100% in each case.
With `C/C(=C\NC(=O)/N=C1\SCC(=O)N1c1ccccc1C(C)C)c1ccc(-c2ncn(-c3ccc(OC(F)(F)F)cc3)n2)cc1` [F13, (Z)-1-(3-(2-isopropylphenyl)-4-oxothiazolidin-2-ylidene)-3-((E)-2-(4-(1-(4-(trifluoromethoxy)phenyl)-1H-1,2,4-triazol-3-yl)phenyl)prop-1-en-1-yl)urea], the mortality at 200 ppm in series [1] amounted to 0%. The mortality at 50 µg/cm2 in series [2] and in series [3] was 50 to 100% each time.
As for `CC(C)c1ccccc1NC(=S)NC(=O)NC1CC1c1ccc(-c2ncn(-c3ccc(OC(F)(F)F)cc3)n2)cc1` (stereo not drawn) [F22], in series [1], the mortality at 200 ppm was determined as 0%. The mortality at 50 µg/cm2 in series [2] and in series [3] was 50 to 100% in each case.
`CCCc1ccccc1NC(=S)NC(=O)NC1CC1c1ccc(-c2ncn(-c3ccc(OC(F)(F)F)cc3)n2)cc1` (stereo not drawn) [F23]: in series [1], the mortality at 200 ppm is 0%. Besides, the mortality at 50 µg/cm2 in series [2] and in series [3] was 50 to 100% throughout.
Take `CCc1cccc(C)c1NC(=S)NC(=O)NC1CC1c1ccc(-c2ncn(-c3ccc(OC(F)(F)F)cc3)n2)cc1` (stereo not drawn) [F24, N-(2-ethyl-6-methylphenyl)-N′-[2-(4-(1-[4-(trifluoromethoxy)phenyl]-1H-1,2,4-triazol-3-yl)phenyl)cyclopropyl]dicarbonimidothioic diamide]: the mortality at 200 ppm in series [1] was 0%. Also, the mortality at 50 µg/cm2 in series [2] and in series [3] was 50 to 100% each time.
With `Cc1cccc(C)c1NC(=S)NC(=O)NC1CC1c1ccc(-c2ncn(-c3ccc(OC(F)(F)F)cc3)n2)cc1` (stereo not drawn) [F25], in series [1], the mortality at 200 ppm stood at 0%. In addition, the mortality at 50 µg/cm2 in series [2] and in series [3] was 50 to 100% in each case.
With `CCc1ccc(C)cc1NC(=S)NC(=O)NC1CC1c1ccc(-c2ncn(-c3ccc(OC(F)(F)F)cc3)n2)cc1` (stereo not drawn) [F27, N-(2-ethyl-5-methylphenyl)-N′-[2-(4-{1-[4-(trifluoromethoxy)phenyl]-1H-1,2,4-triazol-3-yl}phenyl)cyclopropyl]dicarbonimidothioic diamide], the mortality at 200 ppm in series [1] was 0%. Besides, the mortality at 50 µg/cm2 in series [2] and in series [3] was 50 to 100% each time.
On to `Cc1ccc(N2C(=O)CS/C2=N\C(=O)NCCCCc2ccc(-c3ncn(-c4ccc(OC(F)(F)F)cc4)n3)cc2)c(C(C)C)c1` [P154, (Z)-1-(3-(2-isopropyl-4-methylphenyl)-4-oxothiazolidin-2-ylidene)-3-(4-(4-(1-(4-(trifluoromethoxy)phenyl)-1H-1,2,4-triazol-3-yl)phenyl)butyl)urea], for which the “YFM % Control (or Mortality) rating” value in series [4] is recorded as “B (More than 0-Less than 80)”. Further, the mortality at 50 µg/cm2 in series [2] and in series [3] was 50 to 100% in each case.
Regarding `CC(C)c1cc(F)ccc1N1C(=O)CS/C1=N\C(=O)NCCCCc1ccc(-c2ncn(-c3ccc(OC(F)(F)F)cc3)n2)cc1` [P155. P1162, (Z)-1-(3-(4-fluoro-2-isopropylphenyl)-4-oxothiazolidin-2-ylidene)-3-(4-(4-(1-(4-(trifluoromethoxy)phenyl)-1H-1,2,4-triazol-3-yl)phenyl)butyl)urea], the “YFM % Control (or Mortality) rating” value in series [4] is given as “A (80-100)”. The mortality at 50 µg/cm2 in series [2] and in series [3] was 50 to 100% in each case.
For the compound `COc1ccc(C(C)C)c(N2C(=O)CS/C2=N\C(=O)NCCCCc2ccc(-c3ncn(-c4ccc(OC(F)(F)F)cc4)n3)cc2)c1` [P156, P682, (Z)-1-(3-(2-isopropyl-5-methoxyphenyl)-4-oxothiazolidin-2-ylidene)-3-(4-(4-(1-(4-(trifluoromethoxy)phenyl)-1H-1,2,4-triazol-3-yl)phenyl)butyl)urea], the “YFM % Control (or Mortality) rating” value in series [4] is “A (80-100)”. Besides, the mortality at 50 µg/cm2 in series [2] and in series [3] was 50 to 100% in each case.
Take `Cc1ccc(C(C)C)c(N2C(=O)CS/C2=N\C(=O)NCCC#Cc2ccc(-c3ncn(-c4ccc(OC(F)(F)F)cc4)n3)cc2)c1` [P160, (Z)-1-(3-(2-isopropyl-5-methylphenyl)-4-oxothiazolidin-2-ylidene)-3-(4-(4-(1-(4-(trifluoromethoxy)phenyl)-1H-1,2,4-triazol-3-yl)phenyl)but-3-yn-1-yl)urea]: in series [4], the “YFM % Control (or Mortality) rating” value is listed as “B (More than 0-Less than 80)”. Also, the mortality at 50 µg/cm2 in series [2] and in series [3] was 50 to 100% in each case.
For the compound `CC(C)c1ccccc1N1C(=O)CS/C1=N\C(=O)NCC(C)c1ccc(-c2ncn(-c3ccc(OC(F)(F)F)cc3)n2)cc1` (stereo not drawn) [P205, (Z)-1-(3-(2-isopropylphenyl)-4-oxothiazolidin-2-ylidene)-3-(2-(4-(1-(4-(trifluoromethoxy)phenyl)-1H-1,2,4-triazol-3-yl)phenyl)propyl)urea], the “YFM % Control (or Mortality) rating” value in series [4] is “A (80-100)”. For the same compound, the mortality at 50 µg/cm2 in series [2] and in series [3] was 50 to 100% each time.
For the compound `COc1ccc(C(C)C)c(N2C(=O)CS/C2=N\C(=O)NCC(C)c2ccc(-c3ncn(-c4ccc(OC(F)(F)F)cc4)n3)cc2)c1` (stereo not drawn) [P679, (Z)-1-(3-(2-isopropyl-5-methoxyphenyl)-4-oxothiazolidin-2-ylidene)-3-(2-(4-(1-(4-(trifluoromethoxy)phenyl)-1H-1,2,4-triazol-3-yl)phenyl)propyl)urea], the “YFM % Control (or Mortality) rating” value in series [4] was “A (80-100)”. The mortality at 50 µg/cm2 in series [2] and in series [3] was 50 to 100% in each case.
